Results: publication PMC8400480, “Synthesis, Antibacterial and Pharmacokinetic Evaluation of Novel Derivatives of Harmine N^9-Cinnamic Acid” (Molecules, 2021)
≈ marks a conversion by molar mass, not a printed value. Read-outs that look alike come from different tables or passages of the source. Values belong to the molecule of their own block, whether it stands above or below them.

Key:
[1] = system: Staphylococcus aureus CICC 10384 (S. aureus); experiment: MIC, microplate dilution method; assay type: cell-based; conditions: read-out: MIC S. aureus
From the text: (§1) According to microplate dilution method, all the prepared compounds were screened for their in vitro antibacterial activity. The investigation included three representative Gram-positive strains, including Staphylococcus aureus CICC 10384 (S. aureus), Staphylococcus albus CICC 20237 (S. albus) and methicillinresistant Staphylococcus aureus ATCC 43300 (MRSA), and two representative Gram-negative strains, including Escherichia coli CICC 10389 (E. coli) and Pseudomonas aeruginosa CVCC 3359 (PA). Harmine and cinnamic acid were used as reference drugs.
(§2) The antibacterial efficiency of all prepared compounds was determined using the microplate dilution method. All compounds were prepared into different concentrations of stock solution according to their solubility. The compounds were added to the 96 well plate and serially diluted in Mueller-Hinton broth. Three Gram-positive strains (S. aureus, S. albus and MRSA) and two Gram-negative strains (E. coli and PA) were cultivated and added to the 96 well plate. The initial concentration of bacteria should be higher than 10^5 CFU/mL. The samples were incubated at 37 °C for 18–24 h. The MIC was determined for compounds by observing change of clarity in the broth. The same procedure was repeated in triplicate.

[2] = system: Escherichia coli CICC 10389 (E. coli); experiment: MIC, microplate dilution method; assay type: cell-based; conditions: read-out: MIC E. coli
From the text: as §1, §2

[3] = system: methicillinresistant Staphylococcus aureus ATCC 43300 (MRSA); experiment: MIC, microplate dilution method; assay type: cell-based; conditions: read-out: MIC MRSA
From the text: as §1, §2

[4] = system: Staphylococcus albus CICC 20237 (S. albus); experiment: MIC, microplate dilution method; assay type: cell-based; conditions: read-out: MIC S. albus
From the text: as §1, §2

[5] = system: Pseudomonas aeruginosa CVCC 3359 (PA); experiment: MIC, microplate dilution method; assay type: cell-based; conditions: read-out: MIC PA
From the text: as §1, §2

[6] = system: MCF-7 (human breast cancer cells); experiment: In vitro cytotoxic activity, MTT assay; assay type: cell-based; conditions: read-out: IC50 MCF-7
Procedure: (§3) In vitro cytotoxic activity of 3c was evaluated using MTT (3-(4,5)-dimethylthi ahiazo (-2)-3,5-diphenytetrazoliiumromide) assay using WI-38 (Human embryonic lung fibroblasts), MCF-7 (human breast cancer cells) and HepG2 (human liver carcinoma cells). Harmine was used as a control.
(§4) The in vitro cytotoxicity of 3c was determined using MTT assay. WI-38 (Human embryonic lung fibroblasts), MCF-7 (Human breast cancer cells) and HepG2 (human liver carcinoma cells) were purchased from American Type Culture Collection (Manassas, VA, USA). The cells were maintained using Dulbecco’s modified eagle’s medium (DMEM, Sangon Biotech, Shanghai, China) supplemented with 10% fetal bovine serum (FBS, Sijiqing Bioengineering Material Co., Ltd., Hangzhou, China), 100 U/mL penicillin and 100 μg/mL streptomycin in a humidified 37 °C incubator under 5% CO2. 100 μL culture medium at a concentration of 1 × 10^4 cells/mL was added to 96-well plate and incubated in a humidified 37 °C incubator under 5% CO2. After 24 h, 10 µL solution of 3c and harmine dissolved in DMSO and PBS and then diluted with DMEM under a concentration gradient, which was added in the wells for final concentrations of 1000, 500, 250, 125, 62.5 µmol/L of compounds in WI-38 and 160, 80, 40, 20, 10 µmol/L of compounds in MCF-7 and Hep-G2. After 48 h incubation, 10 μL MTT solution (5 mg/mL) was added into each well and incubated in a humidified 37 °C incubator under 5% CO2. After 4 h, the supernatant was removed and 150 μL DMSO was added. The absorbance of each well was determined by an enzyme-linked immunosorbent assay reader (Thermo Fisher Scientific Inc., Rochester, NY, USA) at wavelengths of 570 nm. The experiments were performed in triplicate.

[7] = system: HepG2 (human liver carcinoma cells); experiment: In vitro cytotoxic activity, MTT assay; assay type: cell-based; conditions: read-out: IC50 HepG2
Procedure: as §3, §4

[8] = system: WI-38 (Human embryonic lung fibroblasts); experiment: In vitro cytotoxic activity, MTT assay; assay type: cell-based; conditions: read-out: IC50 WI-38
Procedure: as §3, §4

[9] = system: S. aureus (CICC 10384); experiment: Bactericidal time-kill kinetics; assay type: cell-based, Staphylococcus aureus
Procedure: The bacteria S. aureus was prepared in Muellere Hinton broth at 37 °C for 6 h with shaking. The solution of 3c (1 × MIC and 6 × MIC), 5a (1 × MIC and 6 × MIC), harmine (1 × MIC and 6 × MIC) and saline (served as a control group) were separately added to the bacterial suspension so that the final bacterial concentration were 10^6~10^7 CFU/mL. At the predetermined time point (0, 0.5, 2, 4, 6, 12 and 24 h), […] of aliquots were serially diluted in normal saline, plated on sterile Muellere Hinton agar plates, and incubated at 37 °C for 24 h. After incubation, the viable colonies were counted and represented as log10 (CFU/mL). The same procedure was repeated in triplicate.
Figure 3 Time-kill kinetics of compound 3c (A) and 5a (B) at 1 × and 6 × MIC against S. aureus (CICC 10384).

[10] = In vivo pharmacokinetic study in rats; conditions: both sexes, Sprague-Dawley, plasma, rat
Procedure: Adult males and females Sprague Dawley rats, with average weight of 200–250 g, were purchased from the Experiment Animal Center of Lanzhou University (Lanzhou, China). The rats were housed under an environmentally controlled room for one week before staring the experiment. All procedures were performed according to the guidelines issued by the Ethical Committee of Lanzhou University (Permit Number: SYXK(Gan)-2018-0002).
After 7 days acclimatization, rats were randomly divided into two groups with half male and half female in each group (n = 6). All animals were fasted for 12 h with access to water prior to dosing. One group was intravenously administered with 3c at dose of 10 mg/kg. Another group was oral administered with 3c at dose of 40 mg/kg. Approximately 0.3 mL of blood samples were collected into heparinized tubes from the orbital vein at 0.083, 0.25, 0.5, 0.75, 1, 2, 4, 8, 12 and 24 h after the administration. The heparinized blood samples were immediately centrifuged at 4000 rpm for 10 min and the upper plasma was separated and immediately stored at −20 °C used for UPLC-MS/MS analysis.
Plasma samples were processed as follows. First, 100 μL of plasma samples and 50 μL of tinidazole (1000 ng/mL, internal standard) were mixed by vortex for 1 min. Next, 250 μL of acetonitrile were added to the mixture and vortexed for 10 min. After centrifugation at 10,000 rpm for 10 min, 200 μL of the upper organic layer were removed into 1.5 mL centrifuge tube and dried with nitrogen. Finally, the residue was reconstituted in 100 μL of 50% acetonitrile, vortexed for 1 min, centrifuged at 10,000 rpm for 10 min, and then the supernatant was used for UPLC-MS/MS analysis.
The obtained data were analyzed using a non-compartment open model with PKsolver Software. Pharmacokinetic parameters and the experiment data were expressed as the mean ± standard deviation (SD). A paired student’s t-test was used for statistical analysis, with p < 0.05 considered the minimum level of significance.

[11] = Gram-positive, Mueller-Hinton broth, 37 °C, 18–24 h
[12] = Gram-negative, Mueller-Hinton broth, 37 °C, 18–24 h
[13] = iv, i.v. 10 mg/kg, single dose, n = 6, Mean ± SD
[14] = po, i.g. 40 mg/kg, single dose, n = 6, Mean ± SD

Structure (SMILES): COc1ccc2c(c1)[nH]c1c(C)nccc12 [Harmine, 7-methoxy-1-methyl-9H-pyridine [3,4-b] indole]
- MIC [1]: 31.2 µg/mL (≈ 147 µM)
- MIC [2]: 15.6 µg/mL (≈ 73.6 µM)
- MIC [3]: 62.5 µg/mL (≈ 294 µM)
- MIC [4]: 15.6 µg/mL (≈ 73.6 µM)
- MIC [5]: 15.6 µg/mL (≈ 73.6 µM)
- IC50 ([6]; MCF7, 48 h): 78.9 ± 2.82 µM
- IC50 ([7]; HepG2, 48 h): 67.6 ± 1.6 µM
- IC50 ([8]; WI-38, 48 h): 103.4 ± 0.96 µM
- time-kill effect in words ([9]; 1 × MIC): just slowed bacterial propagation
- time to 4-log10 reduction ([9]; 6 × MIC): about 24 h

- MIC [1, 11]: 13.7 µg/mL (≈ 30.7 µM)
- MIC [2, 12]: 219 µg/mL (≈ 491 µM)
- MIC [3, 11]: 54.7 µg/mL (≈ 123 µM)
- MIC [4, 11]: 13.7 µg/mL (≈ 30.7 µM)
- MIC [5, 12]: 219 µg/mL (≈ 491 µM)
- melting point: 128.6 to 129.3 °C
- AUC(0-inf) [10, 13]: 1050 ± 231 ng·h/mL
- AUC(0-t) [10, 13]: 1050 ± 229 ng·h/mL
- Cmax [10, 13]: 837 ± 229 ng/mL
- MRT [10, 13]: 2.86 ± 0.71 h
- Tmax [10, 13]: 0.083 ± 0.03 h
- half-life [10, 13]: 2.27 ± 0.62 h
- bioavailability ([10]; oral, i.g. 40 mg/kg vs i.v. 10 mg/kg, from AUC0→∞): 6.9%
- AUC(0-inf) [10, 14]: 290 ± 55.2 ng·h/mL
- AUC(0-t) [10, 14]: 284 ± 54.4 ng·h/mL
- CL/F [10, 14]: 4.33 mL/min/kg
- Cmax [10, 14]: 159 ± 59.6 ng/mL
- MRT [10, 14]: 3.33 ± 0.83 h
- Tmax [10, 14]: 0.25 ± 0.033 h
- half-life [10, 14]: 1.3 ± 0.47 h
Structure (SMILES): COc1ccc2c3ccnc(C)c3n(CCCOC(=O)/C=C/c3ccccc3[N+](=O)[O-])c2c1 [Compound 3c, 4-(7-Methoxy-1-methyl-9H-pyridine [3,4-b]indole-9-yl) propyl(E)-3-(2-nitrophenyl) acrylate]
- IC50 ([6]; MCF7, MTT, 48 h incubation, n = 3, Mean ± SD): 94.9 ± 3.64 µM
- IC50 ([7]; HepG2, MTT, 48 h incubation, n = 3, Mean ± SD): 161.7 ± 1.31 µM
- IC50 ([8]; WI-38, MTT, 48 h incubation, n = 3, Mean ± SD): 340.3 ± 2.79 µM
- time to 4-log10 reduction ([9]; 1 × MIC): about 4 h
- time to completely kill the bacteria ([9]; 6 × MIC): ≤ 0.5 h
